# Experimental data reported in publication PMC6385645 (Chemical Science, 2018).
# Ends that are not written are not given here. Peptide text beside a SMILES is read from it. * marks the point of attachment. X1 = Nc1ncnc2c1ncn2[C@@H]1O[C@H](COP(=O)(O)NC(=O)[C@H](CC(=O)O)N*)[C@@H](O)[C@H]1O; For = O=C*
# Columns and labels:
# YejABEF importer = conditions: 4 vs the peptide lacking the N-formyl moiety 3; cited from earlier work
# wild type MccB = assay: Competition FP binding assay, wild type MccB, fMccA-FITC probe; design: species or system E. coli; conditions: even at concentrations greater than 5 mM
# MccB = assay: PNP-coupled Michaelis–Menten kinetics of MccB; conditions: wild-type MccB
displacement of bound FITC-labeled N-formylated 2 (wild type MccB),Compound,substrate quality for YejABEF importer (YejABEF importer),substrate inhibition of MccB (MccB)
–,CSCC[C@H](NC=O)C(=O)N[C@@H](CCCNC(=N)N)C(=O)N[C@H](C(=O)NCC(=O)N[C@@H](CC(N)=O)C(=O)N[C@@H](C)C(=O)N[C@@H](CC(=O)O)C(=O)NP(=O)(O)OC[C@H]1O[C@@H](n2cnc3c(N)ncnc32)[C@H](O)[C@@H]1O)[C@@H](C)O [compound 4] (For-MRTGNA-X1),significantly better substrate,–
could not displace,MRTGNAN [compound 1],–,but not with the desformyl 1 peptide
